According to US20050220726A1, “Use of sugar esters in cosmetic and/or pharmaceutical preparations” (priority 2003, published 2005):

Experiments:
[1] = tested on: melanocytes (B16 cell line); experiment: Inhibition of melanin synthesis in B16 melanocytes; type: cell-based; details: 3 days, blank value = 100
Description: Melanin is the pigment responsible for the color of the skin and hair. It is formed in special organelles, the melanosomes, which occur in the melanocytes of the basal layer of the human epidermis. The biosynthesis of melanin begins with the amino acid tyrosine which is oxidized to DOPA (dihydroxyphenylalanine) in the presence of tyrosinase. The DOPA then polymerizes to melanin. […] After incubation for 3 days at 37° C./5% CO2, the nutrient medium was replaced by a solution containing the test substances in various concentrations. After incubation for another 3 days, the cell protein content (Bradford's method) and the content of synthesized melanin were determined through the optical density of the homogenizate at 475 nm. The results are expressed in % against a blank value and are set out in Table 7.

human fibroblasts = experiment: Anti-stress effect on UV-A-damaged fibroblasts; type: cell-based; details: + UV-A 20 J/cm^2; for Cell proteins: blank sample = 100; for GSH/proteins: blank sample = 100, blank + UV-A = 65
Description: UV-A radiation in the 320 to 400 nm range induces oxidative stress which is mainly produced by the activation of photosensitive biological components which in turn catalyze the formation of ROS-like superoxide anions, hydrogen peroxide and singlet oxygen atoms. The anti-UV-A effect was tested on fibroblasts because UV-A radiation penetrates through the dermis where it causes oxidative damage by lipoperoxidation of the cell membrane and a reduction in the content of reduced glutathione (GHS). To this end, human fibroblasts were cultivated as described in a), exposed to UV-A rays (20 J/cm^2) and the cell counts and the GSH content subsequently determined. The results are set out in Table 3, where they are expressed in %-rel. against a blank sample, and represent the results of 3 series of measurements with triple determination.

[2] = tested on: bacterial collagenase (clostridium histolyticum); experiment: Collagenase inhibition on FITC-marked gelatin; type: biochemical; details: 60 mins. at 20° C.
Description: In the event of inflammation, skin proteases, for example collagenase, are released from the polymorphonuclear neutrophilic granulocytes or macrophages. A similar process takes place in the skin of elderly people on exposure to UV rays. As already mentioned, the proteases—also known as matrix metalloproteases (MMPs) through their content of central zinc ions—catalyze the fragmentation of connective tissue proteins. The test substances were tested for collagenase inhibition using bacterial collagenase (clostridium histolyticum) on gelatin marked with fluorochromium (FITC, Calbiochem) as a natural nutrient medium. The incubation time was 60 mins. at 20° C.; the hydrolysis of the substrate was monitored by fluorescence at 393 nm (excitation at 328 nm). The results are set out in Table 6 as the collagenase inhibition in %.

[3] = tested on: human leukaemic granulocytes; experiment: Anti-inflammatory activity: respiratory burst of granulocytes (zymosan, luminol); type: cell-based; details: + stimulation (zymosan), blank + stimulation = 100
From the text: In the course of cutaneous inflammation, leucocytes, such as the polymorphonuclear neutrophilic granulocytes (PMNs) for example, are stimulated by peptides, such as cytokines for example, to emit messenger substances, such as leucotriene for example, which are released from activated or necrotic cells in the dermis. These activated PMNs release not only pro-inflammatory cytokinins, leucotrienes and proteases, but also ROS, such as superoxides and hypochlorite anions for example, of which the function is to destroy penetrated pathogenic germs or fungi. This activity of the PMNs during the inflammation is known as so-called respiratory burst. To investigate to what extent the test extracts can prevent or reduce the respiratory burst, a cell line of human leukaemic granulocytes of these PMNs was incubated together with the test substances at 37° C. and 5% by vol. CO2. After the respiratory burst had been initiated by addition of a yeast extract (zymosan) to the cell solution, the release of superoxide anions was determined through their reaction with luminol.

human keratinocytes [4] = experiment: Protecting cells against UVB radiation (cell DNA, LDH and PGE2 release); type: cell-based; details: + UV-B 50 mJ/cm^2; for Cell DNA: blank = 100, control + UV-B = 33; for LDH released / PGE2 released: control + UV-B = 100
Description: UVB was selected as the stress factor because the rays produce cutaneous inflammation (erythemas, oedemas) by activating enzymes that release arachidonic acid, such as phospholipase A2 (PLA2) for example. […] The influence of UVB rays on keratinocytes was determined in vitro through the release of cytoplasmatic enzymes, such as LDH (lactate dehydrogenase) for example, which runs parallel to the cell damage and the formation of PGE2. […] The quantity of keratinocytes was determined after trypsination via a cell counter while the LDH concentration was enzymatically determined. The results are set out in Table 4, where they are expressed as the activity in %-rel. against a standard, and represent the mean value of two test series involving double determination.

Staphylococcus aureus = experiment: Agar diffusion method, inhibition zones; type: cell-based; details: filter paper with 20 μl test substance; 18 to 24 h at 37° C.
Description: (§1) The antibacterial activity of the test substances was tested by the diffusion method on agar plates or the agar dilution method. In this method, a round filter paper of defined diameter is first impregnated with the test solution and then applied to the surface of an agar plate inoculated beforehand with the test microorganisms. The size of the inhibition zones is then determined after defined times. In particular, it is possible by this method to determine the MIC (Minimum Inhibitory Concentration) as the lowest concentration of test substance with which complete inhibition of the microorganisms can be obtained.
(§2) Agar diffusion method. The inoculum was prepared using a fresh culture in a stationary growth phase (after ca. 18-24 h) in a BHI solution (brain-heart Infusion). The bacterial suspension was adjusted to 0.5 MacFarland units, corresponding to 1.5 10^8 colony-forming units (cfu)/ml; the suspension was then diluted with a sodium chloride solution (1:100) to adjust a value of 1.5 10^6 cfu/ml. Mueller-Hinton agar (Staphylococcus epidermidis, Staphylococcus aureus) and Wilkins-Chalgrens agar containing 5% by weight sheep's blood (Propionibacterium acnes) were then sterilized for 15 mins. at 121° C. and then placed in Petri dishes. 2 to 4 ml of the bacterial suspension were then added to the Petri dishes, followed by drying at room temperature. The filter papers were impregnated with 20 μl of the test substances and applied to the surface of the agar plates. The inoculated Petri dishes were incubated for 18 to 24 h at 37° C. (the Petri dishes containing Propionibacterium acnes under anaerobic conditions) and the antimicrobial activity was then determined by determination of the growth inhibition zones. The results are set out in Table 10 and represent the diameters of the inhibition zones in mm.

Propionibacterium acnes = experiment: Agar diffusion method, inhibition zones; type: cell-based; details: filter paper with 20 μl test substance; 18 to 24 h at 37° C., anaerobic
Description: as §1, §2

[5] = tested on: Staphylococcus epidermidis; experiment: Agar diffusion method, inhibition zones; type: cell-based; details: filter paper with 20 μl test substance; 18 to 24 h at 37° C.
Description: as §1, §2

human keratinocytes [6] = experiment: Growth inhibition on human keratinocytes with EGF; type: cell-based; details: with EGF 10 ng/ml, 3 days, control = 100, control with EGF = 167
Description: Increased proliferation and differentiation of keratinocytes of the hair matrix leads to improved longer hair growth. The following test was carried out to determine the potential of the sugar esters for inhibiting hair growth which is visibly reflected in a reduction in the proliferation of human keratinocyte culture in vitro.
To this end, human keratinocytes were cultivated in a standard cell culture medium containing foetal calf serum (FCS). After incubation for 1 day at 37° C./5% CO2, the growth medium was replaced by standard medium containing 10 ng/ml epidermal growth factor (EGF) and various concentrations of sugar esters dissolved in ethanol (1% by volume).
After incubation for three days, the number of living cells was determined by determining the cell protein content by the Bradford method [Bradford, M. M., A rapid and sensitive method for the quantitation of microgram quantities of protein utilizing the principle of protein-dye binding. Anal. Biochem. (1977), Vol. 72, pp. 248-254].
The results of Table 8 represent the values of triple determinations on two batches expressed in % against a control of cell culture medium without sugar ester.

Sucrose stearate
Cell melanin ([1]; conc. 0.001 % w/v): 75 %-rel.
Cell proteins ([1]; conc. 0.001 % w/v): 89 %-rel.
Cell melanin ([1]; conc. 0.003 % w/v): 18 %-rel.
Cell proteins ([1]; conc. 0.003 % w/v): 70 %-rel.

Fructose stearate
Cell proteins (human fibroblasts; conc. 0.003 % w/v): 83 %-rel.
GSH/proteins (human fibroblasts; conc. 0.003 % w/v): 79 %-rel.
Collagenase inhibition ([2]; Conc. [w/v] 0.3): 45 %-rel.
Cell counts ([3]; conc. 0.001 % w/v): 100 %-rel.
ROS released ([3]; conc. 0.001 % w/v): 88 %-rel.
Cell counts ([3]; conc. 0.01 % w/v): 155 %-rel.
ROS released ([3]; conc. 0.01 % w/v): 26 %-rel.
Cell melanin ([1]; conc. 0.006 % w/v): 49 %-rel.
Cell proteins ([1]; conc. 0.006 % w/v): 105 %-rel.
Cell melanin ([1]; conc. 0.01 % w/v): 21 %-rel.
Cell proteins ([1]; conc. 0.01 % w/v): 76 %-rel.

Glucose laurate
Cell DNA (human keratinocytes [4]; conc. 0.001 % w/v): 17 %-rel.
LDH released (human keratinocytes [4]; conc. 0.001 % w/v): 105 %-rel.
PGE2 released (human keratinocytes [4]; conc. 0.001 % w/v): 107 %-rel.
Cell DNA (human keratinocytes [4]; conc. 0.003 % w/v): 54 %-rel.
LDH released (human keratinocytes [4]; conc. 0.003 % w/v): 49 %-rel.
PGE2 released (human keratinocytes [4]; conc. 0.003 % w/v): 23 %-rel.
Inhibition zones, Staphylococcus aureus (Staphylococcus aureus): 14 mm
Inhibition zones, Propionibacterium acnes (Propionibacterium acnes): 10 mm
Inhibition zones, Staphylococcus epidermidis [5]: 16 mm
Cell proteins (human fibroblasts; conc. 0.0001 % w/v): 95 %-rel.
GSH/proteins (human fibroblasts; conc. 0.0001 % w/v): 91 %-rel.
Collagenase inhibition ([2]; Conc. [w/v] 0.1): 28 %-rel.

Trehalose laurate
Cell proteins (human fibroblasts; conc. 0.003 % w/v): 119 %-rel.
GSH/proteins (human fibroblasts; conc. 0.003 % w/v): 90 %-rel.
Collagenase inhibition ([2]; Conc. [w/v] 0.1): 21 %-rel.

Glucose caprate
Cell DNA (human keratinocytes [4]; conc. 0.003 % w/v): 28 %-rel.
LDH released (human keratinocytes [4]; conc. 0.003 % w/v): 72 %-rel.
PGE2 released (human keratinocytes [4]; conc. 0.003 % w/v): 50 %-rel.
Cell DNA (human keratinocytes [4]; conc. 0.01 % w/v): 36 %-rel.
LDH released (human keratinocytes [4]; conc. 0.01 % w/v): 48 %-rel.
PGE2 released (human keratinocytes [4]; conc. 0.01 % w/v): 28 %-rel.
Cell proteins (human fibroblasts; conc. 0.003 % w/v): 109 %-rel.
GSH/proteins (human fibroblasts; conc. 0.003 % w/v): 144 %-rel.

Fructose palmitate
Cell protein content in % (human keratinocytes [6]; conc. 0.001 % w/v): 166%
Cell protein content in % (human keratinocytes [6]; conc. 0.003 % w/v): 143%
Cell protein content in % (human keratinocytes [6]; conc. 0.01 % w/v): 105%
Cell proteins (human fibroblasts; conc. 0.003 % w/v): 91 %-rel.
GSH/proteins (human fibroblasts; conc. 0.003 % w/v): 81 %-rel.
Collagenase inhibition ([2]; Conc. [w/v] 0.03): 4 %-rel.
Collagenase inhibition ([2]; Conc. [w/v] 0.1): 41 %-rel.
Collagenase inhibition ([2]; Conc. [w/v] 0.3): 78 %-rel.
Cell counts ([3]; conc. 0.001 % w/v): 97 %-rel.
ROS released ([3]; conc. 0.001 % w/v): 81 %-rel.
Cell counts ([3]; conc. 0.01 % w/v): 98 %-rel.
ROS released ([3]; conc. 0.01 % w/v): 42 %-rel.

Fructose dicaprate
Cell melanin ([1]; conc. 0.003 % w/v): 88 %-rel.
Cell proteins ([1]; conc. 0.003 % w/v): 105 %-rel.
Cell melanin ([1]; conc. 0.01 % w/v): 41 %-rel.
Cell proteins ([1]; conc. 0.01 % w/v): 91 %-rel.

Fructose monostearate
Cell melanin ([1]; conc. 0.001 % w/v): 85 %-rel.
Cell proteins ([1]; conc. 0.001 % w/v): 104 %-rel.
Cell melanin ([1]; conc. 0.003 % w/v): 34 %-rel.
Cell proteins ([1]; conc. 0.003 % w/v): 91 %-rel.

Glucose caprylate
Inhibition zones, Staphylococcus aureus (Staphylococcus aureus): 11 mm
Inhibition zones, Propionibacterium acnes (Propionibacterium acnes): 12 mm
Inhibition zones, Staphylococcus epidermidis [5]: 0 mm

Trehalose caprate
Inhibition zones, Staphylococcus aureus (Staphylococcus aureus): 10 mm
Inhibition zones, Propionibacterium acnes (Propionibacterium acnes): 10 mm
Inhibition zones, Staphylococcus epidermidis [5]: 0 mm
Cell proteins (human fibroblasts; conc. 0.00003 % w/v): 120 %-rel.
GSH/proteins (human fibroblasts; conc. 0.00003 % w/v): 87 %-rel.
Collagenase inhibition ([2]; Conc. [w/v] 0.3): 52 %-rel.
Cell melanin ([1]; conc. 0.001 % w/v): 53 %-rel.
Cell proteins ([1]; conc. 0.001 % w/v): 100 %-rel.
Cell melanin ([1]; conc. 0.003 % w/v): 23 %-rel.
Cell proteins ([1]; conc. 0.003 % w/v): 75 %-rel.

Glucose palmitate
Cell DNA (human keratinocytes [4]; conc. 0.001 % w/v): 32 %-rel.
LDH released (human keratinocytes [4]; conc. 0.001 % w/v): 68 %-rel.
PGE2 released (human keratinocytes [4]; conc. 0.001 % w/v): 63 %-rel.
Cell DNA (human keratinocytes [4]; conc. 0.003 % w/v): 32 %-rel.
LDH released (human keratinocytes [4]; conc. 0.003 % w/v): 68 %-rel.
PGE2 released (human keratinocytes [4]; conc. 0.003 % w/v): 65 %-rel.
Cell proteins (human fibroblasts; conc. 0.003 % w/v): 119 %-rel.
GSH/proteins (human fibroblasts; conc. 0.003 % w/v): 114 %-rel.
Cell counts ([3]; conc. 0.001 % w/v): 102 %-rel.
ROS released ([3]; conc. 0.001 % w/v): 99 %-rel.
Cell counts ([3]; conc. 0.01 % w/v): 91 %-rel.
ROS released ([3]; conc. 0.01 % w/v): 58 %-rel.
